Source: PubChem BioAssay AID2060326 (Molecular Pharmacology Branch, DTP, NCI, 2025)

Test system: MDA-MB-468 multi-cell spheroids, viability
Assay: Anticancer human tumor MDA-MB-468 cell line growth inhibition [IpAb];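 also: spheroids exposed to agents for seven days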;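 as to viability, T/C: 100% = DMSO vehicle control viability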
Conditions: for IC50: curve of first compound; for viability, T/C: stronger effect = lower value
Excerpt: Combinatorial screen of targeted agents with ipatasertib and abemaciclib in multi-cell type tumor spheroids
A high-throughput screen of multi-cell type tumor spheroids was designed to identify active combinations of targeted small molecules and ipatasertib or abemaciclib. Complex spheroids include a stromal component modeled by human endothelial cells (HUVEC) and fibroblasts modeled by human mesenchymal stem cells (MSCs). The concentration ranges selected for each drug and investigational agent were based upon clinically achievable concentrations if the clinical Cmax of the agent was known.
Compounds. The drugs and investigational agents: ipatasertib (NSC767898), abemaciclib(NSC768073), selumetinib (NSC741078), trametinib (758246), adavosertib (NSC754352), everolimus (NSC733504), sapanisertib (NSC764658), vemurafenib (NSC761431), venetoclax (NSC766270), copanlisib (NSC809693), apelisib (NSC765974), palbociblib (NSC758247), vemurafenib (NSC761431), dabrafenib (NSC764134), ravoxertinib (NSC781343), BMS-387032 (NSC767048), sotorasib (NSC818433), talazoparib (NSC767125) and afursertib (NSC778305), were obtained from the National Cancer Institute (NCI) Developmental Therapeutics Program Chemical Repository. The FDA-approved anticancer drug set is available from the NCI Developmental Therapeutics Program. […] The stock solutions were prepared in dimethyl sulfoxide (DMSO, Sigma-Aldrich, St. Louis, MO, cat. D2650) at 800-fold the tested concentration and stored at -70 degrees C prior to their use. All drugs and investigational agents were tested over a range starting from a high concentration at or near the clinical Cmax and decreasing in half-log increments. If the clinical Cmax for an agent had not been determined, the highest concentration tested was 10 microM.
NCI60 Cell Culture. NCI60 cell lines were obtained from the NCI Developmental Therapeutics Program Tumor Repository. For each lot of cells, the Repository performed Applied Biosystems AmpFLSTR Identifiler testing with PCR amplification to confirm consistency with the published Identifier STR profile for each cell line. Cells were kept in continuous culture for no more than 20 passages. The optimal seeding densities for each of the cell lines at each time point assessed were determined prior to performing the concentration response studies. Briefly, the NCI60 human tumor lines were grown as monolayers in RPMI 1640 medium supplemented with 10% FBS and 2 mmol/L L-glutamine.
An additional 9 lines were from the NCI60 cell line panel including MDA-MB-231 breast carcinoma, MDA-MB-468 breast carcinoma, MCF7 breast carcinoma, Hs578T breast carcinoma, MALME-3M melanoma, SK-MEL-2 melanoma, SK-OV-3 ovarian carcinoma, DU-145 prostate carcinoma, PC-3 prostate carcinoma, all cell lines along with major genetic alterations are listed on Table 2. Pooled donor human umbilical vein endothelial cells (HUVEC, Lonza, cat. CC-2519) and human mesenchymal stem cells (hMSC, Lonza, cat. PT-2501) were purchased from Lonza (Walkersville, MD).
PDMR cell lines were grown in complete medium (DC medium): Dulbecco's modified Eagle's medium (DMEM)/F12 supplemented with 5% fetal bovine serum (FBS), 2 mM L-glutamine, 100 U/mL penicillin and 100 µg/ml streptomycin, 0.4 µg/ml hydrocortisone, 10 ng/ml epidermal growth factor (EGF) recombinant human protein, 24 µg/mL adenine, and 0.1 mg/mL primocin. During culture from frozen stock vials, PDMR cells were cultured in the same medium containing 10 µM Y-27632 (see Table 3). The PDCs were cultured in complete DMEM/F12 media without 10 microM Y-27632 dihydrochloride for at least two passages prior to the screen. The pooled donor HUVEC and hMSC were cultured in endothelial cell growth medium 2 (PromoCell, Heidelberg, Germany, cat. C-22011) and mesenchymal stem cell growth medium 2 (PromoCell, cat. C-28009), respectively. For all experiments, HUVEC and hMSC were used at passages </=5.
[…]

[1] = second compound 0.01 µM, first compound 0.00949 µM
[2] = second compound 0.01 µM, first compound 0.03 µM
[3] = second compound 0.01 µM, first compound 0.0949 µM
[4] = second compound 0.01 µM, first compound 0.3 µM
[5] = second compound 0.0316 µM, first compound 0.00949 µM
[6] = second compound 0.0316 µM, first compound 0.03 µM
[7] = second compound 0.0316 µM, first compound 0.0949 µM
[8] = second compound 0.0316 µM, first compound 0.3 µM
[9] = second compound 0.1 µM, first compound 0.00949 µM
[10] = second compound 0.1 µM, first compound 0.03 µM
[11] = second compound 0.1 µM, first compound 0.0949 µM
[12] = second compound 0.1 µM, first compound 0.3 µM
[13] = second compound 0.316 µM, first compound 0.00949 µM
[14] = second compound 0.316 µM, first compound 0.03 µM
[15] = second compound 0.316 µM, first compound 0.0949 µM
[16] = second compound 0.316 µM, first compound 0.3 µM
[17] = second compound 1 µM, first compound 0.00949 µM
[18] = second compound 1 µM, first compound 0.03 µM
[19] = second compound 1 µM, first compound 0.0949 µM
[20] = second compound 1 µM, first compound 0.3 µM

SMILES | IC50 (second compound 0.01 µM) | IC50 (second compound 0.0316 µM) | IC50 (second compound 0.1 µM) | IC50 (second compound 0.316 µM) | IC50 (second compound 1 µM) | viability, T/C [1] | viability, T/C [2] | viability, T/C [3] | viability, T/C [4] | viability, T/C [5] | viability, T/C [6] | viability, T/C [7] | viability, T/C [8] | viability, T/C [9] | viability, T/C [10] | viability, T/C [11] | viability, T/C [12] | viability, T/C [13] | viability, T/C [14] | viability, T/C [15] | further results
CC(=O)c1c(C)c2cnc(Nc3ccc(N4CCNCC4)cn3)nc2n(C2CCCC2)c1=O + CCN1CCN(Cc2ccc(Nc3ncc(F)c(-c4cc(F)c5nc(C)n(C(C)C)c5c4)n3)nc2)CC1 | > 300 nM | > 300 nM | > 300 nM | > 300 nM | > 300 nM | 93.6% | 88.4% | 84% | 96.5% | 85.5% | 89.1% | 82.6% | 86.6% | 90.8% | 92.8% | 85.3% | 95.7% | 93.7% | 83.7% | 88% | viability, T/C (second compound 0.01 µM, first compound 0.000949 µM): 99.7%; viability, T/C (second compound 0.01 µM, first compound 0.003 µM): 97.4%; viability, T/C (second compound 0.0316 µM, first compound 0.000949 µM): 92.2%; viability, T/C (second compound 0.0316 µM, first compound 0.003 µM): 99.2%; viability, T/C (second compound 0.1 µM, first compound 0.000949 µM): 101%; viability, T/C (second compound 0.1 µM, first compound 0.003 µM): 96.1%; viability, T/C (second compound 0.316 µM, first compound 0.000949 µM): 106%; viability, T/C (second compound 0.316 µM, first compound 0.003 µM): 93.9%; viability, T/C [16]: 108%; viability, T/C (second compound 1 µM, first compound 0.000949 µM): 74.7%; viability, T/C (second compound 1 µM, first compound 0.003 µM): 75%; viability, T/C [17]: 77.5%; viability, T/C [18]: 71.4%; viability, T/C [19]: 83.1%; viability, T/C [20]: 74.6%
Cn1cnc2c(F)c(Nc3ccc(Br)cc3Cl)c(C(=O)NOCCO)cc21 + CCN1CCN(Cc2ccc(Nc3ncc(F)c(-c4cc(F)c5nc(C)n(C(C)C)c5c4)n3)nc2)CC1 | 1130 nM | 920 nM | 798 nM | 601 nM | 152 nM | 102% | 79.5% | 77.7% | 73.3% | 83.7% | 76.3% | 73.6% | 60.8% | 95.8% | 73.6% | 81.3% | 58.8% | 108% | 89.8% | 75.5% | viability, T/C (second compound 0.01 µM, first compound 0.949 µM): 55.1%; viability, T/C (second compound 0.01 µM, first compound 3 µM): 31.5%; viability, T/C (second compound 0.0316 µM, first compound 0.949 µM): 52%; viability, T/C (second compound 0.0316 µM, first compound 3 µM): 29.7%; viability, T/C (second compound 0.1 µM, first compound 0.949 µM): 52.4%; viability, T/C (second compound 0.1 µM, first compound 3 µM): 28.4%; viability, T/C [16]: 63.3%; viability, T/C (second compound 0.316 µM, first compound 0.949 µM): 51.1%; viability, T/C (second compound 0.316 µM, first compound 3 µM): 16.8%; viability, T/C [17]: 92.7%; viability, T/C [18]: 69%; viability, T/C [19]: 58.9%; viability, T/C [20]: 43.5%; viability, T/C (second compound 1 µM, first compound 0.949 µM): 18.8%; viability, T/C (second compound 1 µM, first compound 3 µM): 3.98%
